Measurements taken from US10577322B2, “5-methoxytryptophan and its derivatives and uses thereof” (National Health Research Institutes, priority 2015, dated 2020).

Experiments:
A549 subcutaneous tumor = assay: Tumor xenograft experiment (A549 s.c. in SCID mice); assay type: in vivo; settings: 100 mg/kg intraperitoneal twice weekly; for subcutaneous tumor volume: 7 weeks
Description: Six-week-old male CB-17 SCID mice, purchased from BioLASCO, were housed in a daily cycle of 12-h light and 12-h darkness and pathogen-free conditions at 26° C. at the Animal Center of the National Health Research Institutes. A549-luc-C8 cells (Caliper Life Sciences), cultured in RPMI-1640 supplemented with 10% FBS, were pretreated with 100 μM 5-MTP, 100 μM 5-MTPE or vehicle for 5 h and were inoculated into the flank of mice subcutaneously (s.c.) (5×10^6 cells/mouse). The 5-MTP-, or 5-MTPE-treated mice (n=10) were injected with 100 mg 5-MTP or 5-MTPE /kg body weight intraperitoneally twice weekly. The vehicle group (n=10) was injected with vehicle (0.033 N HCl in RPMI medium, neutralized with NaOH) twice weekly. The size of s.c. tumors were caliper-measured twice weekly. The tumor volume was calculated according to the formula of length×width×width/2. The tumor growth was also monitored weekly by an IVIS spectrum imaging system. Mice were euthanized at day 52. Subcutaneous tumors and lungs were removed and fixed with 10% Formalin. Nodules on each lobe of the lungs were counted. Histology of the nodules was examined under microscopy by tissue section and H&E staining. The animals' care was in accordance with institutional guidelines and the protocol of in vivo experiments was approved by the Institutional Animal Care and Utilization Committee of the National Health Research Institutes.
In addition, A549 (5×10^6 cells) was injected subcutaneously into the flank of SCID-Beige mice. 10 mice each received intraperitoneal injection of 5-MTP (100 mg/kg), 5-MTPE (100 mg/kg) or vehicle twice weekly. Caliper measurement of the subcutaneous tumor volume periodically for 7 weeks. […] The average tumor volume at 7-week in the 5-MTP treated group was ˜50% of that in the control group.

atherosclerotic lesions = assay: Lipid accumulation and atherosclerotic lesions in ApoE-deficient mice on high fat diet; assay type: in vivo; settings: 23.5 mg/kg 3 times a week i.p., 8 weeks
Description: ApoE-deficient mice at 6 weeks were placed on a Western high fat diet containing 1.25% cholesterol and 21% fat (Research. Diets). The mice were simultaneously treated with vehicle (PBS), 5-MTP or 5-MTPE (23.4 mg/kg body weight, 3 times a week) by intraperitoneal injection. After 8 weeks, the aortic trees were dissected and lesions examined in the aortic arch and its branches. The aortas were carefully freed of connective and adipose tissue under a dissection microscope, opened longitudinally and stained with Oil red 0.
Since reduction of serum 5-MTP in CAD patients may be associated with the development of vascular disease, we determined whether exogenous 5-MTP derivatives exert protective effect in the development of atherosclerosis. ApoE-deficient mice were fed a Western high fat diet containing 1.25% cholesterol and 21% fat (Research Diets) starting at 6 weeks of age. The mice were simultaneously treated with vehicle (PBS), 5-MTP or 5-MTPE (23.5 mg/kg body weight, 3 times a week) by intraperitoneal injection. After 8 weeks, the aortic trees were dissected and lesions examined in the aortic arch and its branches.

A549 lung cancer cells = assay: Transwell cell migration assay, A549; assay type: cell-based; settings: 30 min pretreatment, PMA 4 h or 24 h
Description: (§1) Briefly, cells (10^4/well) were seeded on the upper chamber (6.5-mm insert, 8-μm polycarbonate membrane; Corning Inc.), which was placed in each well of a 24-well plate. The lower chamber was filled with 700 μL DMEM supplemented with 10% FBS. For assessment of in vitro invasion, cells were seeded onto the upper chamber insert coated with Matrigel (BD Biosciences) under the same conditions as the transwell migration assays. At the indicated time, nonmigrated cells that remained at the top surface of the insert were removed with a cotton swab. Cells that migrated to the lower membrane surface and cells that invaded through the matrigel gel to the underside of the membrane were fixed, stained with 0.1% crystal violet for 20 min, and counted under light microscopy. All of the assays were done in triplicate with excellent reproducibility.
(§2) Lung cancer A549 and breast cancers BT474 and T47D cells were pretreated with different concentrations of 5-MTP or 5-MTPE for 30 min, then stimulated with PMA for 4 h or 24 h. Cell migration was measured by the transwell migration assay.

COX-2 = assay: PMA-induced COX-2 expression in A549 cells (immunoblot); assay type: cell-based; settings: for PMA-induced COX-2 protein expression: 30 min pretreatment, PMA 8 h
Description: Cellular protein were resolved by 5% to 20% SDS-PAGE and transferred to nitrocellulose membranes and blotted with specific antibodies as previously described (Lee, G. L., et al.).
After pretreating A549 cells with different concentrations of 5-MTP, 5-MTPE and NACT-5-MTP for 30 min, cells were stimulated with PMA for 8 h. Cell lysates were immunoblotted with antibodies for COX-2 or β-actin.

T47D breast cancer cells = assay: Transwell cell migration assay, T47D; assay type: cell-based; settings: 30 min pretreatment, PMA 4 h or 24 h
Description: as §1, §2

lung tissues = assay: Lung histology (H&E) in LPS-treated mice; assay type: in vivo; settings: LPS 60 mg/kg
Description: For histological studies, the lungs were perfused with saline, and immersed in formalin for 24 h. Tissue blocks were placed in formalin, dehydrated in a graded series of ethanol, embedded in paraffin, cut into 3 μm-thick serial sections, and stained with haematoxylin and eosin for detecting inflammatory cells, alveolar congestion and alveolar septal wall thickness and interstitial edema.
In addition, paraffin-embedded sections were prepared from lungs of mice injected with 60 mg/kg LPS with or without saline or 5-MTP for the indicated time. Lung tissues were stained with hematoxylin and eosin and examined under light microscopy. The results are shown in FIG. 5C, in which scale bars represent 100 μm.

| Structure (SMILES) | subcutaneous tumor volume (A549 subcutaneous tumor) | lipid accumulation in atherosclerotic lesions (Oil red O) (atherosclerotic lesions) | PMA-induced A549 cell migration (A549 lung cancer cells) | PMA-induced COX-2 protein expression (COX-2) | COX-2 suppressive activity compared with 5-MTP (COX-2; PMA) | PMA-induced T47D cell migration (T47D breast cancer cells) | average tumor volume at 7-week, of that in the control group (A549 subcutaneous tumor) | lipid accumulation in the arteries (atherosclerotic lesions; ApoE-deficient mice) | LPS-induced lung pathological changes (leukocyte infiltration, septal wall thickening, edema, congestion) (lung tissues) |
| --- | --- | --- | --- | --- | --- | --- | --- | --- | --- |
| COC(=O)C(N)Cc1c[nH]c2ccc(OC)cc12 (stereo not shown) [5-MTPE, ester-5-MTP] | suppressed tumor volume in a time-dependent manner | suppressed lipid accumulation | abrogated | dose-dependently blocked | potent than that of 5-MTP | abrogated | – | – | – |
| COc1ccc2[nH]cc(C[C@H](N)C(=O)O)c2c1 [5-MTP, 5-methoxytryptophan] | suppressed tumor volume in a time-dependent manner | – | abrogated | suppress | – | abrogated | ~50% | less lipid accumulation | significantly alleviated |
